What was measured:
[1] = biological target: T1, Ephrin type-B receptor 6 (Homo sapiens) (UniProt O15197); assay: Selectivity interaction (KinomeScan (DiscoverX)) EUB0000229b EPHB6; settings: at 10 µM
T1 sequence (whole entry): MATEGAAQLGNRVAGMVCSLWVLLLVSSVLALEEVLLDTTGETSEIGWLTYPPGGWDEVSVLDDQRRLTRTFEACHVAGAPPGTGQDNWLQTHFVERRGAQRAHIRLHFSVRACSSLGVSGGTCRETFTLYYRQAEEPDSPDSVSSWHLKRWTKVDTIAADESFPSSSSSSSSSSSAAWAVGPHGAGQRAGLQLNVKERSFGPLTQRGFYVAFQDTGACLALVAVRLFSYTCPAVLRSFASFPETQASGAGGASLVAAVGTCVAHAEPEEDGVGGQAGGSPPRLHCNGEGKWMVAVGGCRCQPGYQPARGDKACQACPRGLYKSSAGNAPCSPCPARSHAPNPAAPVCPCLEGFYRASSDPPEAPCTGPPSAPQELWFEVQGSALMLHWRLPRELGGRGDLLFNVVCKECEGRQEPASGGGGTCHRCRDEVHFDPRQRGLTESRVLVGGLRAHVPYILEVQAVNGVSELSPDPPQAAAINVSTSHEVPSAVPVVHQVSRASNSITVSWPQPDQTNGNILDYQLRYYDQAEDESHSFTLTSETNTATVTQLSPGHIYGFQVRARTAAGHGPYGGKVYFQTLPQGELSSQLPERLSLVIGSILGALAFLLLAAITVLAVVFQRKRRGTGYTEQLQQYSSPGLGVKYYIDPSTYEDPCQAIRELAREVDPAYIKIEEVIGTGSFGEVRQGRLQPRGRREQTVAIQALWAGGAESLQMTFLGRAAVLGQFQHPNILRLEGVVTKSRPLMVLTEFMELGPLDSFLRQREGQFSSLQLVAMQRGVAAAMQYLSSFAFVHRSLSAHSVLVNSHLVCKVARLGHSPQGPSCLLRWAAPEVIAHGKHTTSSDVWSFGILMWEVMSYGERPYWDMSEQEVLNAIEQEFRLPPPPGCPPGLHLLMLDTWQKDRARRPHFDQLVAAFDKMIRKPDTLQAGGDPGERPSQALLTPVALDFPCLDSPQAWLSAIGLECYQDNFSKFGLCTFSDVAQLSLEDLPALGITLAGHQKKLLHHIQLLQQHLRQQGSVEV

[2] = biological target: Adenosine receptor A1 (Homo sapiens) (UniProt P30542); assay: Selectivity interaction (Eurofins CEREP Diversity Profile (receptors and ion channels)) EUB0000279b ADORA1; settings: at 10 µM
[3] = biological target: SRSF protein kinase 2 (Homo sapiens) (UniProt P78362); settings: at 10 µM
Aurora kinase B = Aurora kinase B (Homo sapiens, UniProt Q96GD4); assay: Selectivity interaction (ActivX KiNativ screen (kinase selectivity in THP-1 cell lysates)) EUB0000639a AURKB; type: subcellular; settings: lysate, at 1 µM
[4] = biological target: T2, 3-phosphoinositide-dependent protein kinase 1 (Homo sapiens) (UniProt O15530); assay: Selectivity interaction (KinomeScan (DiscoverX)) EUB0000045b PDPK1
T2 sequence (whole entry): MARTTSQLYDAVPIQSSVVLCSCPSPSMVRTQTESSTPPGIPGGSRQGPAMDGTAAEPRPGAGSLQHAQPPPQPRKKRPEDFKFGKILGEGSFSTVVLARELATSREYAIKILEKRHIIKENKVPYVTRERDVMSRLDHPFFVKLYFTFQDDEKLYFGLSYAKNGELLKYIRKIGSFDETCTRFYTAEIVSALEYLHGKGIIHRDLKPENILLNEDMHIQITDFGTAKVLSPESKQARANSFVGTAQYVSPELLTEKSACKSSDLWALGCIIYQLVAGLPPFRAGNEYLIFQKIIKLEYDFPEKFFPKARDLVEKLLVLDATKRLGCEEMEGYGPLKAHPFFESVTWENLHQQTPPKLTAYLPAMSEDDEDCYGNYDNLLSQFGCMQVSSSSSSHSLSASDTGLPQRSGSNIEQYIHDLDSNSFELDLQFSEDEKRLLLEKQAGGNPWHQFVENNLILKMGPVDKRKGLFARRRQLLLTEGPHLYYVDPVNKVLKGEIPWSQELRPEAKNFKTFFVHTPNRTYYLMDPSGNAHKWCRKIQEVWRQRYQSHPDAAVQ

[5] = biological target: T3, Tyrosine-protein kinase receptor TYRO3 (Homo sapiens) (UniProt Q06418); assay: Selectivity interaction (KinomeScan (DiscoverX)) EUB0001619a TYRO3; settings: at 1 µM
T3 sequence (whole entry): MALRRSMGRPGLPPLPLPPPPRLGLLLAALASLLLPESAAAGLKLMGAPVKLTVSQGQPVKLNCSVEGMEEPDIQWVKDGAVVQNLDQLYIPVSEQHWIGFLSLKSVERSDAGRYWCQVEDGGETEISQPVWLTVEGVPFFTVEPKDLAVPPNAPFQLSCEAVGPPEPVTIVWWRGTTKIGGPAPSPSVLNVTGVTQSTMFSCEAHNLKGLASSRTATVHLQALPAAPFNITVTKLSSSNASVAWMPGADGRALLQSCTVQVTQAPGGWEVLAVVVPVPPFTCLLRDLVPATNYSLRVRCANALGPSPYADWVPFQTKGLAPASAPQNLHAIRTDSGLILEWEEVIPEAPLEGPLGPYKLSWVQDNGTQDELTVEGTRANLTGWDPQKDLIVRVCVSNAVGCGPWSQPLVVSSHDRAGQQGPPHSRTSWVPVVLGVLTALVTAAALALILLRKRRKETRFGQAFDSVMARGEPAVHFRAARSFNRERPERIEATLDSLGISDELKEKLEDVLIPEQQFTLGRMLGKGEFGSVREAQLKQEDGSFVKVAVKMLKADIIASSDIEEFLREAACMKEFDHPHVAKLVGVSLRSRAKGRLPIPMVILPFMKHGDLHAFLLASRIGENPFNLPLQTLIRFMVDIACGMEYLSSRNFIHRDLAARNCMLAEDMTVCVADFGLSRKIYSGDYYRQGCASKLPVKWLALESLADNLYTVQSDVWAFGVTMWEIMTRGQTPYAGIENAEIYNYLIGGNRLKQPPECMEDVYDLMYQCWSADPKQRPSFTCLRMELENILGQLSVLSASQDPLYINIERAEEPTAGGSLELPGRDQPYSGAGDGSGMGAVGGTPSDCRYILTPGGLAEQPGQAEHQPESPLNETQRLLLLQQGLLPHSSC

[6] = biological target: Serine/threonine-protein kinase 32B (Homo sapiens) (UniProt Q9NY57); assay: Selectivity interaction (KinomeScan (DiscoverX)) EUB0000655a STK32B; settings: at 10 µM
Chain of Serine/threonine-protein kinase 32B (Homo sapiens) (Q9NY57 whole entry): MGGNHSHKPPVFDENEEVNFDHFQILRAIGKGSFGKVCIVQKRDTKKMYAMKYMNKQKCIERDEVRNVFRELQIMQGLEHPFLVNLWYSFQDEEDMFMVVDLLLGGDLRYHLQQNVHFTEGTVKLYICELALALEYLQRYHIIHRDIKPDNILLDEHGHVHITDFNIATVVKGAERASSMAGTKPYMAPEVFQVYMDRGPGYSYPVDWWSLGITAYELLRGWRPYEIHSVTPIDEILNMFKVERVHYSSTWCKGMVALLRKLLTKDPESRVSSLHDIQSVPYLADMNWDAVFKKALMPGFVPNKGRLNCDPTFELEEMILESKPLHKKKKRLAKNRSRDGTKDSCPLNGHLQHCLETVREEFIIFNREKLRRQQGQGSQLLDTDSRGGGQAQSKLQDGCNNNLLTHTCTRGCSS

Chain of SRSF protein kinase 2 (Homo sapiens) (P78362 whole entry, looked up): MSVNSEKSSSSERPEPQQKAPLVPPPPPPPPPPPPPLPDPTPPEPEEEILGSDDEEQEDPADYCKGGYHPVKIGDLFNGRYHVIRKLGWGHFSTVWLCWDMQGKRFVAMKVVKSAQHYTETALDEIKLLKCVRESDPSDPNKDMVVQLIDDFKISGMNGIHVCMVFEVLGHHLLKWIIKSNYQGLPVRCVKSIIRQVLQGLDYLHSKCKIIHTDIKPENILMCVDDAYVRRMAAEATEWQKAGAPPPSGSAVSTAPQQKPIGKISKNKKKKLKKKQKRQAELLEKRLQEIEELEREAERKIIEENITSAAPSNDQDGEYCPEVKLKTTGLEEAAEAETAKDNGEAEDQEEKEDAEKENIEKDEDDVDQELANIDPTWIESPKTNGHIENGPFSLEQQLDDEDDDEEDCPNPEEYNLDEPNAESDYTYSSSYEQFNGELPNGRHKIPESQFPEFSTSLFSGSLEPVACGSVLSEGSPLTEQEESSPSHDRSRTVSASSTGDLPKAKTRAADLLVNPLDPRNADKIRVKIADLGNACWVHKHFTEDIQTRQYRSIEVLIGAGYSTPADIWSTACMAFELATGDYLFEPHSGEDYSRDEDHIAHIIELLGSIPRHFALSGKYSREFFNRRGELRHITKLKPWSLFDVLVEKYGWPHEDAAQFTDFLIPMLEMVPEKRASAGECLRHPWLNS
Chain of Aurora kinase B (Q96GD4 whole entry): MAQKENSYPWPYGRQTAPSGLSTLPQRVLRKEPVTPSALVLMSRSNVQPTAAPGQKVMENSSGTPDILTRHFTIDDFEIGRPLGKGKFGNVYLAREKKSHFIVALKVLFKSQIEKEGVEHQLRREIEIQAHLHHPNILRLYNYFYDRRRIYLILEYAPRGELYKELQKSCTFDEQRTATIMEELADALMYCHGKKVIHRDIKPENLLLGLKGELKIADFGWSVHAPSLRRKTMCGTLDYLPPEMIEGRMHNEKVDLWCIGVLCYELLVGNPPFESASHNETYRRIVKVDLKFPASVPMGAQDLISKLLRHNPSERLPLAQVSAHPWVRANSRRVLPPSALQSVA
Chain of Adenosine receptor A1 (Homo sapiens) (P30542 whole entry): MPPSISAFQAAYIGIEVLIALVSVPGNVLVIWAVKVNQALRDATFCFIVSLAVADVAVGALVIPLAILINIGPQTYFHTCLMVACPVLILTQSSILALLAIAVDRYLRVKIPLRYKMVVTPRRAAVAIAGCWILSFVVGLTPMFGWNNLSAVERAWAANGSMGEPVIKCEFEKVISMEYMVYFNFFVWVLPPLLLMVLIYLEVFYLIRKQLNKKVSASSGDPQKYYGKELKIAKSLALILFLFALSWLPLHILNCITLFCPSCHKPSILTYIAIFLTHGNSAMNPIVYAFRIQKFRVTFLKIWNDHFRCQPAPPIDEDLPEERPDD

**Q.** For COc1cc(N(C)c2ccnc3ccc(C(F)(F)F)cc23)cc(OC)c1OC, which % binding [1] is on record?
**A.** 81%

**Q.** With CC(=O)c1cc(-c2ccccc2OCC2CC2)c2ncccn12 as the compound, how does the % of control [2] read?
**A.** 35%

**Q.** For CCN(CC)CCCCNc1ncc2cc(-c3cc(OC)cc(OC)c3)c(NC(=O)NC(C)(C)C)nc2n1, which % of control [3] is on record?
**A.** 100%

**Q.** With CC[C@@H]1[C@H](F)C(=O)N[C@@H]1COc1nccc2cc(C(N)=O)c(OC)cc12 [ZIMLOVISERTIB] as the compound, how does the % of inhibition (Aurora kinase B) read?
**A.** 20%

**Q.** Which % of control ([4]; at 1 µM) does the source give for C=CC(=O)Nc1cc(-n2c(=O)ccc3cnc4ccc(-c5ccc(NS(C)(=O)=O)cc5)cc4c32)ccc1C here?
**A.** 100%

**Q.** What about the % of control ([4]; at 10 µM) of the same compound?
**A.** 100%

**Q.** With N#Cc1cccc(-c2c[nH]c3ncnc(N4CCOCC4)c23)c1 as the compound, how does the % of control [5] read?
**A.** 100%

**Q.** CN(C)CCOc1ccc(-c2nc(-c3ccncc3)c(-c3ccc4c(c3)CC/C4=N\O)[nH]2)cc1 was tested. Which % of control [6] did it give?
**A.** 85%

Source: ChEMBL document CHEMBL5465560, “Selectivity Literature for EUbOPEN Chemogenomic Library” (2024)
